Measurements: patent US12351580B2, “NLRP3 modulators” (Innate Tumor Immunity, Inc., priority 2017, dated 2025)

Key:
TLR7 = biological target: T1, TLR7 (Homo sapiens, UniProt Q9NYK1); experiment: In vitro human TLR7 binding reporter assay (HEK-Blue, NF-kB/AP1-inducible SEAP); format: cell-based; conditions: activity range symbols
T1 construct: host or cells: HEK-Blue cells (human HEK) co-expressing TLR7 and an NF-kB/AP1-inducible SEAP reporter
T1 sequence (Q9NYK1 27-1049): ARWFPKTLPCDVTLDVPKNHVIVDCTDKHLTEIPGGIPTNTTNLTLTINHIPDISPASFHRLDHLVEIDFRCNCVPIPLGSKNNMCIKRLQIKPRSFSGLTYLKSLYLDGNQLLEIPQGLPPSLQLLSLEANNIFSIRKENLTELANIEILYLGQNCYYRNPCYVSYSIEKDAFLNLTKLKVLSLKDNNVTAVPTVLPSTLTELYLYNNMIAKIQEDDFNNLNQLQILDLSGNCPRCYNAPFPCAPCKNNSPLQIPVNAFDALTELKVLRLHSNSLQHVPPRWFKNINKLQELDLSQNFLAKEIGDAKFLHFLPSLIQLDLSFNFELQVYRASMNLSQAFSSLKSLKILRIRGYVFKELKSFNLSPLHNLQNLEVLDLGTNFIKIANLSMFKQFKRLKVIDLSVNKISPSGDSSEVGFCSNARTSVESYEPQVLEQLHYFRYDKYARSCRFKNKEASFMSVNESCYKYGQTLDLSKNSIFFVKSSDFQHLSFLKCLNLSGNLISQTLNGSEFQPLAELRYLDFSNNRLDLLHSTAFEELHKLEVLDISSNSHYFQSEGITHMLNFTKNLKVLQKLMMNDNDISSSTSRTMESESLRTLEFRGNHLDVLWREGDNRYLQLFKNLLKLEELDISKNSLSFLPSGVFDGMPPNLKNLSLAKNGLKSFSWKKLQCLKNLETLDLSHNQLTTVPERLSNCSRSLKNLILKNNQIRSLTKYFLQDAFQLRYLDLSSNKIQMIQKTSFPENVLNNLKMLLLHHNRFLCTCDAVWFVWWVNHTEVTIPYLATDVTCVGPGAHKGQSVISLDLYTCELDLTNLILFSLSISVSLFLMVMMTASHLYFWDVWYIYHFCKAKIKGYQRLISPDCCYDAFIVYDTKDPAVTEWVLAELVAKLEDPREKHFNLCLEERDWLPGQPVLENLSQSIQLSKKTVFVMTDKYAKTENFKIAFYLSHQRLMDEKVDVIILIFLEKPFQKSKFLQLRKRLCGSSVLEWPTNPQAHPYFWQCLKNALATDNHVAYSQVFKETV
How it was run: (§1)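 Reporter cells are plated at 15,000 per well and rested 24 h. Next day, test compounds or DMSO are dispensed, followed by 18 h incubation at 37 °C, 5% CO2.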

TLR8 = biological target: T2, TLR8 (Homo sapiens, UniProt Q9NR97); experiment: In vitro human TLR8 binding reporter assay (HEK-Blue, NF-kB/AP1-inducible SEAP); format: cell-based
T2 construct: host or cells: HEK-Blue cells (human HEK) co-expressing TLR8 and an NF-kB/AP1-inducible SEAP reporter
T2 sequence (Q9NR97 27-1041): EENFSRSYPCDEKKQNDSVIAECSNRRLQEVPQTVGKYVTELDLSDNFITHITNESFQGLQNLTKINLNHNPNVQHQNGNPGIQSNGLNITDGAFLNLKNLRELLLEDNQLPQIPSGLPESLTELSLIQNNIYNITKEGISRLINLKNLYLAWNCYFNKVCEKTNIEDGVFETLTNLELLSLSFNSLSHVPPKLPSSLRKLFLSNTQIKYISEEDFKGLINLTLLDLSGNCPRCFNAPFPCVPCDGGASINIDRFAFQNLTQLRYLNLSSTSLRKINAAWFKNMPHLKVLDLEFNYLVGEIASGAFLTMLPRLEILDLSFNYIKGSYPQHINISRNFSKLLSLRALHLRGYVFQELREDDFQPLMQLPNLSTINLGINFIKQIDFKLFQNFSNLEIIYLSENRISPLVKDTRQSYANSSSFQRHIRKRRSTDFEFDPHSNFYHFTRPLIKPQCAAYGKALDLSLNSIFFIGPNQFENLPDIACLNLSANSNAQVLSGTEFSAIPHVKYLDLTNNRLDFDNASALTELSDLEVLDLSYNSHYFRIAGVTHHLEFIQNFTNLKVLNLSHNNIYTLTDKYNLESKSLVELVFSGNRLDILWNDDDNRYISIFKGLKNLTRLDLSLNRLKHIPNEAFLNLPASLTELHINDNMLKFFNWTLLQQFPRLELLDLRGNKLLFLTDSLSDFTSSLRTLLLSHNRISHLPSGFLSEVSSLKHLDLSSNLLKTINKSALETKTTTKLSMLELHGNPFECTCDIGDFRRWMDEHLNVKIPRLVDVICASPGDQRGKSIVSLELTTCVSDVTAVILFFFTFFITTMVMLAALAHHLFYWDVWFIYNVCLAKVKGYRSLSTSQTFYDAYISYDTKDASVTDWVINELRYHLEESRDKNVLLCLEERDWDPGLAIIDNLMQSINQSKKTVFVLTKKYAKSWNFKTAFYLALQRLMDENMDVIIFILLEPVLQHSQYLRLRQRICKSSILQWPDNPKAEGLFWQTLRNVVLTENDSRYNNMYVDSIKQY
How it was run: as §1

SMILES	EC50 (TLR7) [µM]	EC50 (TLR8; numeric bounds) [µM]	EC50 (TLR8; activity range symbols) [µM]
CCN(Cc1nc2c(N)nc3cc(-c4cc[nH]n4)ccc3c2[nH]1)C(=O)Cc1ccccc1 [Compound 443, N-{[4-amino-7-(1H-pyrazol-3-yl)-1H-imidazo[4,5-c]quinolin-2-yl]methyl}-N-ethyl-2-phenylacetamide]	> 100	> 62	
CCN(Cc1nc2c(N)nc3cc(-c4cc[nH]n4)ccc3c2[nH]1)C(=O)CCCc1ccccc1 [Compound 444, N-{[4-amino-7-(1H-pyrazol-3-yl)-1H-imidazo[4,5-c]quinolin-2-yl]methyl}-N-ethyl-4-phenylbutanamide]	> 100		1 to 20
CCN(Cc1nc2c(N)nc3cc(-c4ccsc4)ccc3c2[nH]1)C(C)=O [Compound 419, N-((4-Amino-7-(thiophen-3-yl)-1H-imidazo[4,5-c]quinolin-2-yl)methyl)-N-ethylacetamide]	> 100		> 100
Nc1nc2cc(-c3cccnc3Cl)ccc2c2[nH]c(CN3CCCC3=O)nc12 [Compound 320, 1-[[4-amino-7-(2-chloropyridin-3-yl)-1H-imidazo[4,5-c]quinolin-2-yl]methyl]pyrrolidin-2-one]	> 100		> 100
Nc1nc2cc(-c3cnccc3Cl)ccc2c2[nH]c(CN3CCCC3=O)nc12 [Compound 321, 1-[[4-amino-7-(4-chloropyridin-3-yl)-1H-imidazo[4,5-c]quinolin-2-yl]methyl]pyrrolidin-2-one]	20 to 100		> 100
CCN(Cc1nc2c(N)nc3cc(-c4cc[nH]n4)ccc3c2[nH]1)C(=O)c1ccncc1 [Compound 450, N-{[4-amino-7-(1H-pyrazol-3-yl)-1H-imidazo[4,5-c]quinolin-2-yl]methyl}-N-ethylpyridine-4-carboxamide]	> 100		> 100
COC(=O)CCCn1c(CN2CCCC2=O)nc2c(N)nc3cc(-c4cccnc4)ccc3c21 [Compound 342]	> 100		> 100
CCN(Cc1nc2c(N)nc3cc(-c4cc[nH]n4)ccc3c2[nH]1)C(=O)CCc1ccccc1 [Compound 447, N-{[4-amino-7-(1H-pyrazol-3-yl)-1H-imidazo[4,5-c]quinolin-2-yl]methyl}-N-ethyl-3-phenylpropanamide]	> 100		1 to 20
CCN(Cc1nc2c(N)nc3cc(Br)ccc3c2n1CCCOC)C(C)=O [Compound 431]	> 100	> 10	
CCN(Cc1nc2c(N)nc3cc(-c4cc[nH]n4)ccc3c2[nH]1)C(=O)c1ccccc1Cl [Compound 449, N-{[4-amino-7-(1H-pyrazol-3-yl)-1H-imidazo[4,5-c]quinolin-2-yl]methyl}-2-chloro-N-ethylbenzamide]	> 100		20 to 100
CN(Cc1nc2c(N)nc3cc(-c4cc[nH]n4)ccc3c2[nH]1)C(=O)CO [Compound 370]	> 100		> 100
CN(Cc1nc2c(N)nc3cc(-c4cc[nH]n4)ccc3c2[nH]1)C(=O)c1nccs1 [Compound 377]	> 100		> 100
CCC(=O)NCc1nc2c(N)nc3cc(-c4cc[nH]n4)ccc3c2[nH]1 [Compound 111]	> 100		> 100
CN(C)C(=O)CCCn1c(CN2CCCC2=O)nc2c(N)nc3cc(-c4cccnc4)ccc3c21 [Compound 340]	> 100		> 100
